These results are taken from article PMC9354954, “Assessing Bioavailability and Bioactivity of 4-Hydroxythiazolidine-2-Thiones, Newly Discovered Glucosinolate Degradation Products Formed During Domestic Boiling of Cabbage” (Frontiers in Nutrition, 2022).

Molecules are shown by their SMILES.

A short description of data set [1]: Uptake and excretion from red cabbage broth, human self-experiment (24 h urine, LC-MS/MS). Format: in vivo. As to conditions: male, 500 mL red cabbage broth, oral, n = 3, mean ± SD, read-out: recovery in collected urine within 24 h compared to the amount of intake. Here is the method: To obtain the GLS degradation products allyl HTT and 4-MSOB HTT in the food matrix, a kitchen practice approach was applied. Therefore, 1.2 kg of fresh conventional red cabbage (Brassica oleracea var. capitata f. rubra) bought in a supermarket were cut into approximately 4 × 4 × 4 cm pieces and boiled for 1 h in 3 L of tap water without additives in a stainless-steel pot with a glass lid on a kitchen stove. After cooling to room temperature, three male authors of this study (27–39 years) drank 500 mL of the red cabbage boiling solution (broth) without red cabbage pieces. […] In total, 950 μL of 1:1 diluted red cabbage boiling solution was measured in 3 different ways (each prepared as duplicates): (1) Spiked with 50 μL water, (2) spiked with 50 μL of a solution with concentrations of 1 μM for allyl HTT and 5 μM for 4-MSOB HTT, or (3) spiked with 50 μL of a solution with concentrations of 3 μM for allyl HTT and 10 μM for 4-MSOB HTT. Urine samples were measured in three different ways (each prepared as duplicates): 200 μL of undiluted urine was spiked with (1) 1 μL of water, (2) 1 μL of a solution with concentrations of 4 μM for allyl HTT and 8 μM for 4-MSOB HTT, or (3) 1.5 μL of a solution with concentrations of 4 μM for allyl HTT and 8 μM for 4-MSOB HTT. […]

Another data set deals with HepG2 cells. In words: Uptake into HepG2 cells (supernatant before and after cell lysis, LC-MS/MS). The settings on record: for Amount of analyte in supernatant after cell lysis / Amount of analyte in supernatant before cell lysis / Increase due to cell lysis: HepG2, 100 μM, 24 h. Format: in vitro ADME, human. As for the experimental part:
Cells originated from a human liver cancer cell line (HepG2) were grown in RPMI-1640 medium + 10% FBS + 1% penicillin/streptomycin under cell culture conditions (37°C and 5% CO2 atmosphere) in T-75 flasks (Sarsted, Nümbrecht, Germany) until a confluence of approximately 50%. This medium and growing conditions were used for all experiments with HepG2 cells in this study. The medium was exchanged by fresh medium for control samples, or by fresh medium containing a concentration of 100 μM allyl HTT or 4-MSOB HTT. Afterward, the cells were incubated for an additional 24 h (each prepared for three cell passages). In the case of cell experiments, all allyl HTT or 4-MSOB HTT spiked media were sterile filtered using Filtropur S 0.2 sterile from Sarstedt AG & Co (Nümbrecht, Germany). After treatment, the medium of HepG2 cells (~80% confluence) was removed and cells were washed three times with 6 mL of PBS. In a second approach performed only for 4-MSOB HTT, treated cells were washed 6 times with 6 mL of PBS. The higher number of washing steps in the case of 4-MSOB HTT was chosen to remove the analyte residues from the former treatment medium more effectively. This enabled to detect a significant increase in analyte amount due to cell lysis when comparing the analyte amount in the supernatant before and after cell lysis, as only three washing steps for allyl HTT and control were not sufficient to detect a significant difference in 4-MSOB HTT amounts due to cell lysis treatment. Afterward, cells were detached from the surface by incubation with 1.5 mL trypsin/EDTA (1 x) for 5 min at 37°C. The cell suspension was transferred into a 2-mL micro reaction vessel and centrifuged for 2 min at 560 g. Then, the cell pellet was washed carefully twice with 1.5 mL of pure water to remove further residues of the analyte spiked medium and to reduce the salt concentration in the samples for LC-MS/MS measurements. For cell lysis, the micro reaction vessels with cell pellet and approximately 60 μL supernatant were sonicated for 15 min in an ultrasonic bath, followed by the addition of 40 μL of MeCN and an additional sonication step for 15 min. Afterward, the cell suspension was centrifuged for 3 min at 4,000 g, and the supernatant, as well as the supernatant before cell lysis, were analyzed by LC-MS/MS. A standard addition method was used, with added amounts of 3 pmol of allyl HTT and 1.2 pmol of 4-MSOB HTT. The mass spectrometry parameters were like QTRAP method 1 (see Section Uptake and Excretion of 4-Hydroxythiazolidine-2-Thiones From a Red Cabbage Meal – A Human Self-Experiment) with an injection volume of 10 μL. The used HPLC method 3 was a gradient of A = water and B = MeCN with 0 to 5 min 2% B, an increase to 14 min up to 98% B, holding for 5 min followed by a decrease to 2% B at 20 min and re-equilibration with 2% B for 4 min, using a flow rate of 300 μL/min, Agilent Zorbax Eclipse Plus C8 column (see Section Stability of 4-Hydroxythiazolidine-2-Thiones in a Stomach Model) and a column oven temperature of 35°C. The given results are the mean of the three biological replicates ± SD. […] The significance of the difference in analyte amount before and after cell lysis was determined by t-test for independent samples per variable using the STATISTICA version 13.5 software (StatSoft, Hamburg, Germany) with a significance level of p ≤ 0.05.

Consider `C[S+]([O-])CCCCN1C(=S)SCC1O` (stereo not drawn) [4-MSOB HTT, 4-hydroxy-3-(4-(methylsulfinyl)butyl)thiazolidine-2-thione], for which, in data set [1], the dose excreted worked out at 21 ± 4%. Also, in the data set with HepG2 cells (3 washing steps), the “Amount of analyte in supernatant after cell lysis” value (shortened to “Amount … after cell lysis”) is reported as 810 ± 140 fmol, the “Amount of analyte in supernatant before cell lysis” value is given as 760 ± 190 fmol and the “Increase due to cell lysis” value was determined as 56 ± 55 fmol. In the data set with HepG2 cells (6 washing steps), the “Amount … after cell lysis” value was 21 ± 5 fmol, the “Amount of analyte in supernatant before cell lysis” value was found to be 1.7 ± 0.3 fmol and the “Increase due to cell lysis” value came to 20 ± 5 fmol.

Take `C=CCN1C(=S)SCC1O` (stereo not drawn) [allyl HTT, 3-allyl-4-hydroxythiazolidine-2-thione]: in data set [1], the dose excreted worked out at 18 ± 5%. For the same compound, in the data set on HepG2 cells (3 washing steps), the “Amount … after cell lysis” value is 1,060 ± 140 fmol, the “Amount of analyte in supernatant before cell lysis” value was 520 ± 170 fmol and the “Increase due to cell lysis” value came out at 540 ± 160 fmol. Further, the “measured ratio for the higher uptake of allyl HTT compared to 4-MSOB HTT” value in the data set on HepG2 cells (HepG2 cells) is 27 fold.
